Test results reported in US20220220128A1, “HETEROCYCLIC COMPOUNDS AS KINASE INHIBITORS, COMPOSITIONS COMPRISING THE HETEROCYCLIC COMPOUND, AND METHODS OF USE THEREOF” (JS Innopharm (Shanghai) Ltd, priority 2019, published 2022).

How the values were obtained:
[1] = molecular target: T1, BAF3-KIF5B-RET cells (Homo sapiens, UniProt P07949); assay: BAF3-KIF5B-RET Cell proliferation assay (CellTiter-Glo, 72 hours); type: cell-based; conditions: growth inhibition, read-out: BA/F3-KIF5B-RET Cellular activity
T1 construct: fused on or other part: P33176 (Kinesin-1 heavy chain)
Experimental: Compounds disclosed herein were tested for the inhibition of RET by a cancer cell proliferation assay commonly known as CellTiter-Glo assay. In this assay, a complete media was prepared by adding 10% fetal bovine serum to RPMI-1640 medium (Life technology) for BAF3-FIF5B-RET cells. BAF3-KIF5B-RET cells were added to each of 88 wells of a 96 well plate at a seeding density of 2,000 cells/well/95 μL. The cells were allowed to attach to the plate by incubating at 37° C. for 24 hours. The compound was dissolved in DMSO (SIGMA). A solution of test compound was prepared in complete media by serial dilution to obtain the following concentrations: 20 μM, 6.67 μM, 2.22 μM, 0.74 μM, 0.25 μM, 0.082 μM, 0.027 μM, 0.0091 μM and 0.0030 μM. The test compound solution (5 μL) was added to each of 80 cell-containing wells. The final concentrations of the compound were following: 1 μM, 0.33 μM, 0.11 μM, 0.037 μM, 0.012 μM, 0.0041 μM, 0.0014 μM, 0.00046 μM and 0.00015 μM. The final concentration of DMSO is 0.1%. To the 8 remaining cell-containing wells, only complete media (containing 0.1% DMSO) was added to form a control group in order to measure maximal proliferation. To the remaining 8 empty wells, complete media was added to for a vehicle control group in order to measure background. The plates were incubated at 37° C. for 72 hours. 50 μl of CellTiter-Glo® Reagent was added to each well. Mix contents for 2 minutes on an orbital shaker to induce cell lysis. Incubate at room temperature for 10 minutes to stabilize luminescent signal. Record luminescence on Paradigm. Cell viability (CV %) was calculated relative to vehicle (DMSO) treated control wells. The IC50 was calculated using GraphPad Prism.

[2] = molecular target: T2, human RET kinase (Homo sapiens, UniProt P07949); assay: RET Kinase Assay (LanthaScreen TR-FRET enzymatic assay); type: biochemical; conditions: 7 nM RET, 23 μM ATP
T2 construct: purchased Carna 08-159
Summary of the method: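 TR-FRET enzymatic read-out using 23 μM ATP, 3 μM FAM-P2 substrate and 7 nM human RET, after 15-min compound pretreatment at room temperature and a 1 h reaction at 28° C in HEPES pH 7.5 buffer. Percent of DMSO control fitted to nonlinear sigmoid curves for IC50.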

T2 sequence (P07949 29-1114): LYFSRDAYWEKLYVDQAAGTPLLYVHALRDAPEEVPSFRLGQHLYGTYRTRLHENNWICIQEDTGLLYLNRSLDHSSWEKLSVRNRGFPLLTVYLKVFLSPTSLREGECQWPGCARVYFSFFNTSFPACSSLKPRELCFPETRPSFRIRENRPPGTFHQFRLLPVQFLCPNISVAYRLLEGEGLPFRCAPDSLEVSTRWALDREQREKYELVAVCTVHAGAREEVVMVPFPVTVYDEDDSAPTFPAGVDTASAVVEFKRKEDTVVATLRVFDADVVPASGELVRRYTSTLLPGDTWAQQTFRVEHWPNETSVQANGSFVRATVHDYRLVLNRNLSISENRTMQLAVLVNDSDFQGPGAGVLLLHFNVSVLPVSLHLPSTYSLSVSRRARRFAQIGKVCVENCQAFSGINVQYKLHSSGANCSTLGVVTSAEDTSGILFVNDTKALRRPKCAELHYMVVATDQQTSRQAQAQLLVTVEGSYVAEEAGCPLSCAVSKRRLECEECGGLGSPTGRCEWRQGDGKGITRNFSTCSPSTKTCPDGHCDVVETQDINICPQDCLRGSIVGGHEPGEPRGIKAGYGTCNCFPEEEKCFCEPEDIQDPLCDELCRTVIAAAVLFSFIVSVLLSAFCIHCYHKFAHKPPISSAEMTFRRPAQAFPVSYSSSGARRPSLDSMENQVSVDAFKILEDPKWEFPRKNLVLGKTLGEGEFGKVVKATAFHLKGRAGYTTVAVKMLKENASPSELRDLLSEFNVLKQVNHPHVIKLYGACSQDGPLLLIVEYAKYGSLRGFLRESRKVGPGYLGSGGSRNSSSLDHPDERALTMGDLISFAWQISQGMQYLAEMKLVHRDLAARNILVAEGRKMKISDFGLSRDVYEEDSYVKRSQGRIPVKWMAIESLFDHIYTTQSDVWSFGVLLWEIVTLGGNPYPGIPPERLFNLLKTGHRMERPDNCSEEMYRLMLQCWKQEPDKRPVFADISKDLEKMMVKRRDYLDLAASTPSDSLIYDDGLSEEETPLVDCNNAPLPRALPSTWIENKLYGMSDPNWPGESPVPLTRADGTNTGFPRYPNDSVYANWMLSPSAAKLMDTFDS
T1 sequence (P07949 whole entry, change not shown, the tested form may be a part): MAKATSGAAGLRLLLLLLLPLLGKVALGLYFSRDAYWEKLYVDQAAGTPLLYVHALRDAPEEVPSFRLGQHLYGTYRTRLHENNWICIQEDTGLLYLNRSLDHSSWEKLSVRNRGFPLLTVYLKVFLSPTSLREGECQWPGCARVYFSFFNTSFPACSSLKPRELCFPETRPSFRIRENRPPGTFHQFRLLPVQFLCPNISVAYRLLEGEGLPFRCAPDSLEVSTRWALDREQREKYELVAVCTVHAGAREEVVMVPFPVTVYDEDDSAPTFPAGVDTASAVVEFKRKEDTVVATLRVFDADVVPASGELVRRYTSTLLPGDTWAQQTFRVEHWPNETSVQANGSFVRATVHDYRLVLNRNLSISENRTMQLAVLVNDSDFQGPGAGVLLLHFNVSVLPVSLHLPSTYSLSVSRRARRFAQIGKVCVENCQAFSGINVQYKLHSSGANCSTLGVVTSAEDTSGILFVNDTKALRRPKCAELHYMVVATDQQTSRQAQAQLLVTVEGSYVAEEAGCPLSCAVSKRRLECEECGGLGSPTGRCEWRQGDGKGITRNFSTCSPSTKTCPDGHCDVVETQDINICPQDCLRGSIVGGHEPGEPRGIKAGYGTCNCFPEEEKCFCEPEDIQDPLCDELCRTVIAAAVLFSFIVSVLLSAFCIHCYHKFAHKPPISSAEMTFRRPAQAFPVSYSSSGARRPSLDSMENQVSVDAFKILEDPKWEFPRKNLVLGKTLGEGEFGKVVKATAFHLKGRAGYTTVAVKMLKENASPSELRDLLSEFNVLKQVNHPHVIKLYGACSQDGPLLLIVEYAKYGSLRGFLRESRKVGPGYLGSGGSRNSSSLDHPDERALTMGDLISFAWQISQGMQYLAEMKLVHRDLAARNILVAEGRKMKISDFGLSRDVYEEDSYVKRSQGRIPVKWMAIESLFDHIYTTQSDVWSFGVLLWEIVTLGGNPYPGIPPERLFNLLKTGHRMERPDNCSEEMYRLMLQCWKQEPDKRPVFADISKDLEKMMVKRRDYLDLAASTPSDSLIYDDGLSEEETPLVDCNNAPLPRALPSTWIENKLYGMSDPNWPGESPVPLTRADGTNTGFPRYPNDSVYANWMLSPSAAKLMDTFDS

SMILES	GI50 [1] [nM]	IC50 [2] [nM]
COc1ccc(CN2[C@@H]3CC[C@H]2[C@H]2CN(c4ccc(-c5cc(OCC(C)(C)O)cn6ncc(C#N)c56)cn4)C[C@H]23)cn1 [Example 117, 6-(2-hydroxy-2-methylpropoxy)-4-(6-((3aR,4S,7R,7aS)-8-((6-methoxypyridin-3-yl)methyl)hexahydro-1H-4,7-epiminoisoindol-2(3H)-yl)pyridin-3-yl)pyrazolo[1,5-a]pyridine-3-carbonitrile]	> 100	10 to 50
CC(C)(O)COc1cc(-c2ccc(N3C[C@@H]4[C@@H](CNC(=O)c5c(F)cccc5Cl)[C@@H]4C3)nc2)c2c(C#N)cnn2c1 [Example 125, 2-chloro-N-(((1R,5S,6s)-3-(5-(3-cyano-6-(2-hydroxy-2-methylpropoxy)pyrazolo[1,5-a]pyridin-4-yl)pyridin-2-yl)-3-azabicyclo[3.1.0]hexan-6-yl)methyl)-6-fluorobenzamide]	≤ 10	≤ 10
CC(C)(O)COc1cc(-c2cnc(N3C4CC5CC3CC(NC=O)(C5)C4)cn2)c2c(C#N)cnn2c1 [Example 160, N-((1R,3S,5s,7s)-2-(5-(3-cyano-6-(2-hydroxy-2-methylpropoxy)pyrazolo[1,5-a]pyridin-4-yl)pyrazin-2-yl)-2-azaadamantan-5-yl)formamide]	> 100	10 to 50
COc1ccc(CN2[C@@H]3CC[C@H]2[C@H]2CN(c4ccc(-c5cc(-c6cnn(C)c6)cn6ncc(C#N)c56)cn4)C[C@H]23)cn1 [Example 118, 4-(6-((3aR,4S,7R,7aS)-8-((6-methoxypyridin-3-yl)methyl)hexahydro-1H-4,7-epiminoisoindol-2(3H)-yl)pyridin-3-yl)-6-(1-methyl-1H-pyrazol-4-yl)pyrazolo[1,5-a]pyridine-3-carbonitrile]	10 to 50	≤ 10
Cn1cc(-c2cc(-c3cnc(N4C5CC6CC4CC(O)(C6)C5)cn3)c3c(C#N)cnn3c2)cn1 [Example 104, 4-(5-((1R,3S,5s,7s)-5-hydroxy-2-azaadamantan-2-yl)pyrazin-2-yl)-6-(1-methyl-1H-pyrazol-4-yl)pyrazolo[1,5-a]pyridine-3-carbonitrile]	10 to 50	≤ 10
COc1ccc(C(=O)N[C@@H]2C[C@@H]3CN(c4ccc(-c5cc(OCC(C)(C)O)cn6ncc(C#N)c56)cn4)C[C@@H]3C2)cn1 [Example 159, N-((3aR,5r,6aS)-2-(5-(3-cyano-6-(2-hydroxy-2-methylpropoxy)pyrazolo[1,5-a]pyridin-4-yl)pyridin-2-yl)octahydrocyclopenta[c]pyrrol-5-yl)-6-methoxynicotinamide]	10 to 50	10 to 50
COc1ccc(CNC(=O)[C@H]2[C@@H]3CN(c4ccc(-c5cc(OCC(C)(C)O)cn6ncc(C#N)c56)cn4)C[C@@H]32)cn1 [Example 119, (1R,5S,6r)-3-(5-(3-cyano-6-(2-hydroxy-2-methylpropoxy)pyrazolo[1,5-a]pyridin-4-yl)pyridin-2-yl)-N-((6-methoxypyridin-3-yl)methyl)-3-azabicyclo[3.1.0]hexane-6-carboxamide]	50 to 100	≤ 10
Cn1cc(-c2cc(-c3cnc(N4C5CC6CC4CC(N)(C6)C5)cn3)c3c(C#N)cnn3c2)cn1 [Example 108, 4-(5-((1R,3S,5s,7s)-5-amino-2-azaadamantan-2-yl)pyrazin-2-yl)-6-(1-methyl-1H-pyrazol-4-yl)pyrazolo[1,5-a]pyridine-3-carbonitrile]	10 to 50	≤ 10
COc1cncc(C(=O)N[C@]2(C)C[C@H]3CN(c4cnc(-c5cc(-c6cnn(C)c6)cn6ncc(C#N)c56)cn4)C[C@H]3C2)c1 [Example 148, N-((3aR,5s,6aS)-2-(5-(3-cyano-6-(1-methyl-1H-pyrazol-4-yl)pyrazolo[1,5-a]pyridin-4-yl)pyrazin-2-yl)-5-methyloctahydrocyclopenta[c]pyrrol-5-yl)-5-methoxynicotinamide]	≤ 10	≤ 10
COc1cccc(C(=O)N[C@]2(C)C[C@H]3CN(c4cnc(-c5cc(-c6cnn(C)c6)cn6ncc(C#N)c56)cn4)C[C@H]3C2)n1 [Example 146, N-((3aR,5s,6aS)-2-(5-(3-cyano-6-(1-methyl-1H-pyrazol-4-yl)pyrazolo[1,5-a]pyridin-4-yl)pyrazin-2-yl)-5-methyloctahydrocyclopenta[c]pyrrol-5-yl)-6-methoxypicolinamide]	≤ 10	≤ 10
COc1ccc(C(=O)N[C@]2(C)C[C@H]3CN(c4cnc(-c5cc(-c6cnn(C)c6)cn6ncc(C#N)c56)cn4)C[C@H]3C2)cn1 [Example 145, N-((3aR,5s,6aS)-2-(5-(3-cyano-6-(1-methyl-1H-pyrazol-4-yl)pyrazolo[1,5-a]pyridin-4-yl)pyrazin-2-yl)-5-methyloctahydrocyclopenta[c]pyrrol-5-yl)-6-methoxynicotinamide]	≤ 10	≤ 10

Further lines, results first:

GI50 [1] [nM]	IC50 [2] [nM]	SMILES
50 to 100	≤ 10	CCOc1cc(-c2cnc(N3C4CC5CC3CC(NC(=O)c3ccc(OC)nc3)(C5)C4)cn2)c2c(C#N)cnn2c1 [Example 167, N-((1R,3S,5s,7s)-2-(5-(3-cyano-6-cthoxypyrazolo[1,5-a]pyridin-4-yl)pyrazin-2-yl)-2-azaadamantan-5-yl)-6-methoxynicotinamide]
> 100	10 to 50	CC(C)(O)COc1cc(-c2cnc(N3C4CC5CC3CC(N)(C5)C4)cn2)c2c(C#N)cnn2c1 [Example 162, 4-(5-((1R,3S,5s,7s)-5-amino-2-azaadamantan-2-yl)pyrazin-2-yl)-6-(2-hydroxy-2-methylpropoxy)pyrazolo[1,5-a]pyridine-3-carbonitrile]
10 to 50	≤ 10	Cn1cc(-c2cc(-c3cnc(N4C[C@@H]5C[C@](C)(NC(=O)c6ncccc6Cl)C[C@@H]5C4)cn3)c3c(C#N)cnn3c2)cn1 [Example 199, 3-chloro-N-((3aR,5r,6aS)-2-(5-(3-cyano-6-(1-methyl-1H-pyrazol-4-yl)pyrazolo[1,5-a]pyridin-4-yl)pyrazin-2-yl)-5-methyloctahydrocyclopenta[c]pyrrol-5-yl)picolinamide]
≤ 10	≤ 10	COc1cccc(C(=O)NC[C@@H]2[C@H]3CN(c4ccc(-c5cc(-c6cnn(C)c6)cn6ncc(C#N)c56)cn4)C[C@@H]23)n1 [Example 195, N-(((1R,5S,6s)-3-(5-(3-cyano-6-(1-methyl-1H-pyrazol-4-yl)pyrazolo[1,5-a]pyridin-4-yl)pyridin-2-yl)-3-azabicyclo[3.1.0]hexan-6-yl)methyl)-6-methoxypicolinamide]
≤ 10	≤ 10	Cn1cc(-c2cc(-c3ccc(N4C[C@@H]5C[C@](C)(NC(=O)c6ncccc6Cl)C[C@@H]5C4)nc3)c3c(C#N)cnn3c2)cn1 [Example 173, 3-chloro-N-((3aR,5r,6aS)-2-(5-(3-cyano-6-(1-methyl-1H-pyrazol-4-yl)pyrazolo[1,5-a]pyridin-4-yl)pyridin-2-yl)-5-methyloctahydrocyclopenta[c]pyrrol-5-yl)picolinamide]
10 to 50	≤ 10	COc1cc(C(=O)NC[C@@H]2[C@H]3CN(c4ccc(-c5cc(-c6cnn(C)c6)cn6ncc(C#N)c56)cn4)C[C@@H]23)ccn1 [Example 194, N-(((1R,5S,6s)-3-(5-(3-cyano-6-(1-methyl-1H-pyrazol-4-yl)pyrazolo[1,5-a]pyridin-4-yl)pyridin-2-yl)-3-azabicyclo[3.1.0]hexan-6-yl)methyl)-2-methoxyisonicotinamide]
> 100	10 to 50	CCOc1cc(-c2cnc(N3C4CC5CC3CC(N)(C5)C4)cn2)c2c(C#N)cnn2c1 [Example 163, 4-(5-((1R,3S,5s,7s)-5-amino-2-azaadamantan-2-yl)pyrazin-2-yl)-6-ethoxypyrazolo[1,5-a]pyridine-3-carbonitrile]
10 to 50	≤ 10	COc1ccc(C(=O)NC23CC4CC(C2)N(c2cnc(-c5cc(OCC(C)(C)O)cn6ncc(C#N)c56)cn2)C(C4)C3)cn1 [Example 166, N-((1R,3S,5s,7s)-2-(5-(3-cyano-6-(2-hydroxy-2-methylpropoxy)pyrazolo[1,5-a]pyridin-4-yl)pyrazin-2-yl)-2-azaadamantan-5-yl)-6-methoxynicotinamide]
10 to 50	≤ 10	COc1ccc(C(=O)N2[C@@H]3CC[C@H]2[C@H]2CN(c4ccc(-c5cc(OCC(C)(C)O)cn6ncc(C#N)c56)cn4)C[C@H]23)cn1 [Example 174, 6-(2-hydroxy-2-methylpropoxy)-4-(6-((3aR,4S,7R,7aS)-8-(6-methoxynicotinoyl)hexahydro-1H-4,7-epiminoisoindol-2(3H)-yl)pyridin-3-yl)pyrazolo[1,5-a]pyridine-3-carbonitrile]
